Measurements taken from US9249145B2, “Heterocyclic derivatives of pyrazol-4-yl-pyrrolo[2,3-d]pyrimidines as janus kinase inhibitors” (Incyte Holdings Corporation, priority 2009, dated 2016).
Where a name gives a salt, the structure may show the parent alone. Read-outs that look alike come from different tables or passages of the source.

Legend:
[1] = target: T1, human JAK1 (a.a. 837-1142) (Homo sapiens, UniProt P23458); experiment: In vitro JAK kinase assay (HTRF, phosphorylation of biotinylated peptide), JAK1; type: biochemical
T1 construct: The catalytic domains of human JAK1 (a.a. 837-1142); His tag (N); made in house; host or cells: insect cells (baculovirus)
Description: (§1) Compounds herein were tested for inhibitory activity of JAK targets according to the following in vitro assay described in Park et al., Analytical Biochemistry 1999, 269, 94-104. The catalytic domains of human JAK1 (a.a. 837-1142), Jak2 (a.a. 828-1132) and Jak3 (a.a. 781-1124) with an N-terminal His tag were expressed using baculovirus in insect cells and purified. The catalytic activity of JAK1, JAK2 or JAK3 was assayed by measuring the phosphorylation of a biotinylated peptide. The phosphorylated peptide was detected by homogenous time resolved fluorescence (HTRF). IC50s of compounds were measured for each kinase in the 40 microL reactions that contain the enzyme, ATP and 500 nM peptide in 50 mM Tris (pH 7.8) buffer with 100 mM NaCl, 5 mM DTT, and 0.1 mg/mL (0.01%) BSA. The ATP concentration in the reactions was 90 μM for Jak1, 30 μM for Jak2 and 3 μM for Jak3 for Km conditions. For the 1 mM IC50 measurements, ATP concentration in the reactions was 1 mM. Reactions were carried out at room temperature for 1 hr and then stopped with 20 μL 45 mM EDTA, 300 nM SA-APC, 6 nM Eu-Py20 in assay buffer (Perkin Elmer, Boston, Mass.). Binding to the Europium labeled antibody took place for 40 minutes and HTRF signal was measured on a Fusion plate reader (Perkin Elmer, Boston, Mass.). See Tables 1, 2, 3, and 4 for data related to compounds of the invention.

Jak2 (a.a. 828-1132) = target: T2, Jak2 (a.a. 828-1132) (Homo sapiens, UniProt O60674); experiment: In vitro JAK kinase assay (HTRF, phosphorylation of biotinylated peptide), JAK2; type: biochemical
T2 construct: Jak2 (a.a. 828-1132); His tag (N); made in house; host or cells: insect cells (baculovirus)
Description: as §1

[2] = 1 mM ATP, Examples 12-91, read-out: JAK1 IC50 (nM) @ 1 mM ATP
[3] = 1 mM ATP, Examples 12-91, read-out: JAK2 IC50 (nM) @ 1 mM ATP
[4] = 1 mM ATP, Examples 92-162, read-out: JAK1 IC50 (nM) @ 1 mM ATP
[5] = 1 mM ATP, Examples 92-162, read-out: JAK2 IC50 (nM) @ 1 mM ATP

T1 sequence (P23458 849-1154): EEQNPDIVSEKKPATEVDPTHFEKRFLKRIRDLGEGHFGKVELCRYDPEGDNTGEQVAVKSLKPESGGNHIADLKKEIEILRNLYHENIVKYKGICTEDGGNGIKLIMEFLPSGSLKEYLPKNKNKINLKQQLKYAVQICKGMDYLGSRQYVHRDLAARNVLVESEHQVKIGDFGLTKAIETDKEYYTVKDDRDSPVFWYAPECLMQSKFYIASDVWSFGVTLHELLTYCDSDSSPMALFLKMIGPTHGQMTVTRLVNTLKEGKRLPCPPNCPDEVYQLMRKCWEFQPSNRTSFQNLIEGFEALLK
T2 sequence (O60674 828-1132): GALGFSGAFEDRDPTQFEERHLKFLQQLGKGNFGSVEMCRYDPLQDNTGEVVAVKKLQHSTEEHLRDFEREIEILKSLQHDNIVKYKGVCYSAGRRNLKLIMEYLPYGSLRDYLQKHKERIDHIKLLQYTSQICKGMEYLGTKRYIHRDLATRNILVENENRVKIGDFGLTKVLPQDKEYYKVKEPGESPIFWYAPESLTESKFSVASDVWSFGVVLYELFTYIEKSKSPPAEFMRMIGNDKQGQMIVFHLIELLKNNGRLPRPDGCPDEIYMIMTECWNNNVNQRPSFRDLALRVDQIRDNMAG

SMILES	IC50 [1, 2] [nM]	IC50 (Jak2 (a.a. 828-1132); [3]) [nM]	IC50 [1, 4] [nM]	IC50 (Jak2 (a.a. 828-1132); [5]) [nM]	other results
N#CCC(CN1CCN(C(=O)c2ccc(F)c(OC(F)(F)F)c2)CC1)n1cc(-c2ncnc3[nH]ccc23)cn1 (centres unmarked) [Example 49, 3-(4-(7H-pyrrolo[2,3-d]pyrimidin-4-yl)-1H-pyrazol-1-yl)-4-(4,-(4-fluoro-3-(trifluoromethoxy)benzoyl)piperazin-1-yl)butanenitrile]	10 to 50	> 100			
N#CCC(CN1CCN(C(=O)c2ccc(F)cc2)CC1)n1cc(-c2ncnc3[nH]ccc23)cn1 (centres unmarked) [Example 36, 3-(4-(7H-pyrrolo[2,3-d]pyrimidin-4-yl)-1H-pyrazol-1-yl)-4-(4-(4-fluorobenzoyl)piperazin-1-yl)butanenitrile]	< 10	10 to 50			
Cc1cc(F)ccc1NC(=O)N1CCN(CC(CC#N)n2cc(-c3ncnc4[nH]ccc34)cn2)CC1 (centres unmarked) [Example 23, 4-(2-(4-(7H-pyrrolo[2,3-d]pyrimidin-4-yl)-1H-pyrazol-1-yl)-3-cyanopropyl)-N-(4-fluoro-2-methylphenyl)piperazine-1-carboxamide]	10 to 50	> 100			
N#CCC(CN1CCN(C(=O)c2cc(C(F)(F)F)ccc2F)CC1)n1cc(-c2ncnc3[nH]ccc23)cn1 (centres unmarked) [Example 32, 3-(4-(7H-pyrrolo[2,3-d]pyrimidin-4-yl)-1H-pyrazol-1-yl)-4-(4-(2-fluoro-5-(trifluoromethyl)benzoyl)piperazin-1-yl)butanenitrile]	< 10	< 10			
Cc1cc(C(=O)N2CCN(CC(CC#N)n3cc(-c4ncnc5[nH]ccc45)cn3)CC2)ccc1F (centres unmarked) [Example 37, 3-(4-(7H-pyrrolo[2,3-d]pyrimidin-4-yl)-1H-pyrazol-1-yl)-4-(4-(4-fluoro-3-methylbenzoyl)piperazin-1-yl)butanenitrile]	< 10	10 to 50			
N#CCC(CN1CCN(C(=O)c2ccc(C#N)cc2F)CC1CO)n1cc(-c2ncnc3[nH]ccc23)cn1 (single isomer, unassigned) [156—peak 4, 4-{[4-{3-cyano-2-[4-(7H-pyrrolo[2,3-d]pyrimidin-4-yl)-1H-pyrazol-1-yl]propyl}-3-(hydroxymethyl)piperazin-1-yl]carbonyl}-3-fluorobenzonitrile trifluoroacetate Salt]			> 100	> 100	
N#CCC(CN1CCN(C(=O)c2ccc(O)cc2F)CC1)n1cc(-c2ncnc3[nH]ccc23)cn1 (centres unmarked) [Example 31, 3-(4-(7H-pyrrolo[2,3-d]pyrimidin-4-yl)-1H-pyrazol-1-yl)-4-(4-(2-fluoro-4-hydroxybenzoyl)piperazin-1-yl)butanenitrile trifluoroacetate salt]	< 10	10 to 50			
N#CCC(CC1CCN(C(=O)c2ccc(F)cc2F)CC1)n1cc(-c2ncnc3[nH]ccc23)cn1 (centres unmarked) [Example 6, 4-[1-(2,4-difluorobenzoyl)piperidin-4-yl]-3-[4-(7H-pyrrolo[2,3-d]pyrimidin-4-yl)-1H-pyrazol-1-yl]butanenitrile]					IC50 ([1]; Km ATP (90 μM for Jak1), Examples 1-11, read-out: IC50 (nM) @ Km ATP JAK1): < 10 nM; IC50 (Jak2 (a.a. 828-1132); Km ATP (30 μM for Jak2), Examples 1-11, read-out: IC50 (nM) @ Km ATP JAK2): < 10 nM
N#CCC(CN1CCN(C(=O)c2ccc(Cl)cc2F)CC1)n1cc(-c2ncnc3[nH]ccc23)cn1 (centres unmarked) [Example 26, 3-(4-(7H-pyrrolo[2,3-d]pyrimidin-4-yl)-1H-pyrazol-1-yl)-4-(4-(4-chloro-2-fluorobenzoyl)piperazin-1-yl)butanenitrile]	< 10	< 10			
Cn1ccc(S(=O)(=O)N2CCN(CC(CF)n3cc(-c4ncnc5[nH]ccc45)cn3)CC2)n1 (racemic) [Example 10, (±)-4-(1-(1-fluoro-3-(4-(1-methyl-1H-pyrazol-3-ylsulfonyl)piperazin-1-yl)propan-2-yl)-1H-pyrazol-4-yl)-7H-pyrrolo[2,3-d]pyrimidine]					IC50 ([1]; 1 mM ATP, Examples 1-11, read-out: IC50 (nM) @ 1 mM ATP JAK1): < 10 nM; IC50 (Jak2 (a.a. 828-1132); 1 mM ATP, Examples 1-11, read-out: IC50 (nM) @ 1 mM ATP JAK2): > 20 nM

Second part, led by results:

IC50 [1, 2] [nM]	IC50 (Jak2 (a.a. 828-1132); [3]) [nM]	IC50 [1, 4] [nM]	IC50 (Jak2 (a.a. 828-1132); [5]) [nM]	SMILES	other results
< 10	< 10			N#CCC(CN1CCN(S(=O)(=O)c2cc(F)ccc2F)CC1)n1cc(-c2ncnc3[nH]ccc23)cn1 (centres unmarked) [Example 62, 3-(4-(7H-pyrrolo[2,3-d]pyrimidin-4-yl)-1H-pyrazol-1-yl)-4-(4-(2,5-difluorophenylsulfonyl)piperazin-1-yl)butanenitrile trifluoroacetate salt]	
		20 to 50	> 100	N#CCC(CN1CCCN(C(=O)c2ccc(F)cc2)CC1)n1cc(-c2ncnc3[nH]ccc23)cn1 (centres unmarked) [Example 98, 4-[4-(4-fluorobenzoyl)-1,4-diazepan-1-yl]-3-[4-(7H-pyrrolo[2,3-d]pyrimidin-4-yl)-1H-pyrazol-1-yl]butanenitrile]	
		< 20	20 to 50	CCC(CN1CCN(S(=O)(=O)c2cccc(F)c2)CC1)n1cc(-c2ncnc3[nH]ccc23)cn1 (centres unmarked) [Example 136, 4-(1-(1-(4-(3-fluorophenylsulfonyl)piperazin-1-yl)butan-2-yl)-1H-pyrazol-4-yl)-7H-pyrrolo[2,3-d]pyrimidine]	
		20 to 50	> 100	C[C@H]1CN(CC(CC#N)n2cc(-c3ncnc4[nH]ccc34)cn2)CCN1C(=O)c1ccc(C#N)cc1F (mixture of isomers) [Example 162, 4-[((2S)-4-{3-cyano-2-[4-(7H-pyrrolo[2,3-d]pyrimidin-4-yl)-1H-pyrazol-1-yl]propyl}-2-methylpiperazin-1-yl)carbonyl]-3-fluorobenzonitrile]	
		20 to 50	> 100	N#CCC(CN1CCCN(C(=O)c2ccc(Cl)cc2)CC1)n1cc(-c2ncnc3[nH]ccc23)cn1 (centres unmarked) [Example 107, 4-[4-(4-chlorobenzoyl)-1,4-diazepan-1-yl]-3-[4-(7H-pyrrolo[2,3-d]pyrimidin-4-yl)-1H-pyrazol-1-yl]butanenitrile]	
		< 20	20 to 50	N#CCC(CN1CCN(C(=O)c2ccc(C#N)cc2F)CC1C(F)F)n1cc(-c2ncnc3[nH]ccc23)cn1 (single isomer, unassigned) [Example 159—peak 3, 4-{[4-{3-cyano-2-[4-(7H-pyrrolo[2,3-d]pyrimidin-4-yl)-1H-pyrazol-1-yl]propyl}-3-(difluoromethyl)piperazin-1-yl]carbonyl}-3-fluorobenzonitrile]	
		20 to 50	> 100	Cc1c(Nc2ccccc2)ncnc1N1CCC(C(CC#N)n2cc(-c3ncnc4[nH]ccc34)cn2)CC1 (centres unmarked) [Example 146, 3-[1-(6-anilino-5-methylpyrimidin-4-yl)piperidin-4-yl]-3-[4-(7H-pyrrolo[2,3-d]pyrimidin-4-yl)-1H-pyrazol-1-yl]propanenitrile]	
		< 20	> 100	Cc1c(Nc2ccccc2F)ncnc1N1CCC(C(CC#N)n2cc(-c3ncnc4[nH]ccc34)cn2)CC1 (centres unmarked) [Example 147, 3-(4-(7H-pyrrolo[2,3-d]pyrimidin-4-yl)-1H-pyrazol-1-yl)-3-(1-(6-(2-fluorophenylamino)-5-methylpyrimidin-4-yl)piperidin-4-yl)propanenitrile]	
		20 to 50	> 100	CCC(CN1CCN(S(=O)(=O)c2cn(C)nc2C(F)(F)F)CC1)n1cc(-c2ncnc3[nH]ccc23)cn1 (centres unmarked) [Example 133, 4-(1-(1-(4-(1-methyl-3-(trifluoromethyl)-1H-pyrazol-4-ylsulfonyl)piperazin-1-yl)butan-2-yl)-1H-pyrazol-4-yl)-7H-pyrrolo[2,3-d]pyrimidine]	
		20 to 50	> 100	CC(CN1CCN(S(=O)(=O)c2cccc(F)c2)CC1)n1cc(-c2ncnc3[nH]ccc23)cn1 (centres unmarked) [Example 96, 4-[1-(2-{4-[(3-fluorophenyl)sulfonyl]piperazin-1-yl}-1-methylethyl)-1H-pyrazol-4-yl]-7H-pyrrolo[2,3-d]pyrimidine bis(trifluoroacetate)]	
10 to 50	50 to 100			N#CCC(CN1CCN(C(=O)c2cc(Cl)cc(OC(F)(F)F)c2)CC1)n1cc(-c2ncnc3[nH]ccc23)cn1 (centres unmarked) [Example 53, 3-(4-(7H-pyrrolo[2,3-d]pyrimidin-4-yl)-1H-pyrazol-1-yl)-4-(4-(3-chloro-5-(trifluoromethoxy)benzoyl)piperazin-1-yl)butanenitrile]	
		< 20	20 to 50	CCC(CN1CCN(C(=O)c2ccc(Cl)cc2F)CC1)n1cc(-c2ncnc3[nH]ccc23)cn1 (centres unmarked) [Example 124, (4-(2-(4-(7H-pyrrolo[2,3-d]pyrimidin-4-yl)-1H-pyrazol-1-yl)butyl)piperazin-1-yl)(4-chloro-2-fluorophenyl)methanone]	
